Results on four compounds are retold here after ChEMBL document CHEMBL1124634, “Synthesis and antirhinovirus activity of 6-(dimethylamino)-2-(trifluoromethyl)-9-(substituted benzyl)-9H-purines” (J Med Chem, 1989).

Some results are limits rather than exact numbers.

Experiment [1] has as its system Human rhinovirus sp. As to the kind of experiment: Antiviral activity against rhinoviral 29 serotype in a plaque inhibition assay using monolayers of M-HeLa cells. It is filed as functional, organism-based.
The subject of experiment [2] is Human rhinovirus sp. As to the kind of experiment: Antiviral activity against rhinoviral 2 serotype in a plaque inhibition assay using monolayers of M-HeLa cells. It is filed as functional, organism-based.
For experiment [3], the system named is Human rhinovirus sp. As to the kind of experiment: Antiviral activity against rhinoviral 4 serotype in a plaque inhibition assay using monolayers of M-HeLa cells. It is filed as functional, organism-based.
Experiment [4] deals with Human rhinovirus sp. Description: Antiviral activity against rhinoviral 8 serotype in a plaque inhibition assay using monolayers of M-HeLa cells. It is filed as functional, organism-based.
For experiment [5], the system named is Human rhinovirus sp. Description: Antiviral activity against rhinoviral 14 serotype in a plaque inhibition assay using monolayers of M-HeLa cells. It is filed as functional, organism-based.
The subject of experiment [6] is Human rhinovirus sp. Description: Antiviral activity against rhinoviral 15 serotype in a plaque inhibition assay using monolayers of M-HeLa cells. It is filed as functional, organism-based.
For experiment [7], the system named is Human rhinovirus sp. As to the kind of experiment: Antiviral activity against rhinoviral 16 serotype in a plaque inhibition assay using monolayers of M-HeLa cells. It is filed as functional, organism-based.
Experiment [8] has as its system Human rhinovirus sp. Description: Antiviral activity against rhinoviral 12 serotype in a plaque inhibition assay using monolayers of M-HeLa cells. It is filed as functional, organism-based.
For experiment [9], the system named is Human rhinovirus sp. Description: Antiviral activity against rhinoviral-19 serotype in a plaque inhibition assay using monolayers of M-HeLa cells. It is filed as functional, organism-based.
Experiment [10] concerns Human rhinovirus sp. As to the kind of experiment: Antiviral activity against rhinoviral-1A serotype in a plaque inhibition assay using monolayers of M-HeLa cells. It is filed as functional, organism-based.
Experiment [11] concerns Human rhinovirus sp. Description: Antiviral activity against rhinoviral-1B serotype in a plaque inhibition assay using monolayers of M-HeLa cells. It is filed as functional, organism-based.
The subject of experiment [12] is Human rhinovirus sp. Description: Percent inhibitory activity at 8 uM against rhinoviral 13 serotype in a plaque inhibition assay using monolayers of M-HeLa cells. It is filed as functional.
Experiment [13] can be described thus: Percent inhibitory activity at 8 uM against rhinoviral 18 serotype in a plaque inhibition assay using monolayers of M-HeLa cells. It is filed as functional, Homo sapiens.
Experiment [14] deals with Human rhinovirus sp. Description: Percent inhibitory activity at 8 uM against rhinoviral 3 serotype in a plaque inhibition assay using monolayers of M-HeLa cells. It is filed as functional.
Experiment [15] concerns Human rhinovirus sp. Description: Antiviral activity against rhinoviral 5 serotype in a plaque inhibition assay using monolayers of M-HeLa cells. It is filed as functional, organism-based.
For experiment [16], the system named is Human rhinovirus sp. As to the kind of experiment: Antiviral activity against rhinoviral 21 serotype in a plaque inhibition assay using monolayers of M-HeLa cells. It is filed as functional, organism-based.
Experiment [17] relates to Human rhinovirus sp. As to the kind of experiment: (§1) Antiviral activity against rhinoviral 9 serotype in a plaque inhibition assay using monolayers of M-HeLa cells. It is filed as functional, organism-based.
Experiment [18] relates to Human rhinovirus sp. Description: Percent inhibitory activity at 8 uM against rhinoviral 30 serotype in a plaque inhibition assay using monolayers of M-HeLa cells. It is filed as functional.
The test system of experiment [19] is Human rhinovirus sp. Description: Antiviral activity against rhinoviral 31 serotype in a plaque inhibition assay using monolayers of M-HeLa cells. It is filed as functional, organism-based.
The test system of experiment [20] is Human rhinovirus sp. Description: Antiviral activity against rhinoviral 30 serotype in a plaque inhibition assay using monolayers of M-HeLa cells. It is filed as functional, organism-based.
Experiment [21] concerns Human rhinovirus sp. As to the kind of experiment: Percent inhibitory activity at 8 uM against rhinoviral 14 serotype in a plaque inhibition assay using monolayers of M-HeLa cells. It is filed as functional.
For experiment [22], the system named is Human rhinovirus sp. Description: Percent inhibitory activity at 8 uM against rhinoviral 15 serotype in a plaque inhibition assay using monolayers of M-HeLa cells. It is filed as functional.
Experiment [23] deals with Human rhinovirus sp. As to the kind of experiment: Percent inhibitory activity at 8 uM against rhinoviral 19s erotype in a plaque inhibition assay using monolayers of M-HeLa cells. It is filed as functional.
In experiment [24] the test system is Human rhinovirus sp. Description: Percent inhibitory activity at 8 uM against rhinoviral 21 serotype in a plaque inhibition assay using monolayers of M-HeLa cells. It is filed as functional.
The subject of experiment [25] is Human rhinovirus sp. As to the kind of experiment: Percent inhibitory activity at 8 uM against rhinoviral 29 serotype in a plaque inhibition assay using monolayers of M-HeLa cells. It is filed as functional.
Experiment [26] deals with Human rhinovirus sp. Description: Percent inhibitory activity at 8 uM against rhinoviral 31 serotype in a plaque inhibition assay using monolayers of M-HeLa cells. It is filed as functional.
Experiment [27] has as its system Human rhinovirus sp. Description: Percent inhibitory activity at 8 uM against rhinoviral 4 serotype in a plaque inhibition assay using monolayers of M-HeLa cells. It is filed as functional.
The subject of experiment [28] is Human rhinovirus sp. As to the kind of experiment: Antiviral activity against rhinoviral 18 serotype in a plaque inhibition assay using monolayers of M-HeLa cells. It is filed as functional, organism-based.
In experiment [29] the test system is Human rhinovirus sp. As to the kind of experiment: Antiviral activity against rhinoviral 19 serotype in a plaque inhibition assay using monolayers of M-HeLa cells. It is filed as functional, organism-based.
The nature of experiment [30]: Percent inhibitory activity at 4 uM against rhinoviral 2 serotype in a plaque inhibition assay using monolayers of M-HeLa cells. It is filed as functional, Homo sapiens.
Experiment [31] deals with Human rhinovirus sp. Description: Antiviral activity against rhinoviral 3 serotype in a plaque inhibition assay using monolayers of M-HeLa cells. It is filed as functional, organism-based.
A short description of experiment [32]: as §1. It is filed as functional, cell-based. Particulars: Homo sapiens.
The nature of experiment [33]: Antiviral activity against rhinoviral 13 serotype in a plaque inhibition assay using monolayers of M-HeLa cells. It is filed as functional, cell-based. Particulars: Homo sapiens.
Experiment [34] concerns Human rhinovirus sp. As to the kind of experiment: Percent inhibitory activity at 8 uM against rhinoviral 5 serotype in a plaque inhibition assay using monolayers of M-HeLa cells. It is filed as functional.
Experiment [35] is described as follows: Percent inhibitory activity at 8 uM against rhinoviral 8 serotype in a plaque inhibition assay using monolayers of M-HeLa cells. It is filed as functional, Homo sapiens.
A short description of experiment [36]: Percent inhibitory activity at 8 uM against rhinoviral-18 serotype in a plaque inhibition assay using monolayers of M-HeLa cells. It is filed as functional, Homo sapiens.
Experiment [37] can be described thus: Percent inhibitory activity at 8 uM against rhinoviral 2 serotype in a plaque inhibition assay using monolayers of M-HeLa cells. It is filed as functional, Homo sapiens.

The IC50 is the concentration at which inhibition is half-maximal. The low end stands for greater potency in that assay, the high end for weaker potency in that assay. On to `Cc1cc(Cn2cnc3c(N(C)C)nc(C(F)(F)F)nc32)ccc1Cl`, for which the IC50 in experiment [1] is 7 µM; in experiment [2] it was 5.2 µM; in [3], 7.6 µM; in experiment [4], above 8 µM; in experiment [5], 8 µM; in experiment [6], 6.1 µM. In addition, the IC50 is 0.84 µM in experiment [7]; 3.3 µM in [8]; 7.7 µM in [9]; 1.4 µM in [10]; 0.12 µM in [11]; above 8 µM in experiment [15]. The half-maximal inhibitory concentration (IC50) came out at 6.3 µM in experiment [16], 1 µM in experiment [17] and 9 µM in [19]. Besides, the Inhibition in [12] turned out to be 13%; in [13], 28 µM; in experiment [14], 44%; in [18], 31%.
Turning to `CN(C)c1nc(C(F)(F)F)nc2c1ncn2Cc1ccc(Cl)cc1Cl`, the concentration for half-maximal inhibition (IC50) in experiment [2] stood at 6.9 µM; in experiment [20], 11 µM; in experiment [4] it was 8.5 µM; in [7] it was 0.85 µM; in [8], 11 µM; in experiment [10] it was 0.58 µM. The IC50 was 0.12 µM in experiment [11], above 8 µM in [15] and 0.93 µM in [17]. The Inhibition in [12] stood at 20%; in [21], 35%; in experiment [22], 10%; in [13], 32 µM; in experiment [23] it was 40%; in experiment [24] it was 30%. Besides, the Inhibition stood at 15% in experiment [25], 28% in experiment [26], 17% in experiment [14] and 25% in experiment [27].
With `CN(C)c1nc(C(F)(F)F)nc2c1ncn2Cc1ccc(C(F)(F)F)cc1`, the IC50 is 6.6 µM in experiment [28]; 5.2 µM in experiment [29]; 7.2 µM in experiment [1]; 6 µM in experiment [3]; above 8 µM in [4]; 7 µM in experiment [5]. For the same compound, the concentration for half-maximal inhibition (IC50) is 4.2 µM in experiment [6]; 1.2 µM in experiment [7]; 5.2 µM in experiment [8]; 0.91 µM in [10]; 0.11 µM in experiment [11]; above 8 µM in experiment [15]. Further, the IC50 in [16] is 8.2 µM; in experiment [17], 2.2 µM; in experiment [19] it was 6 µM. For the same compound, the Inhibition was found to be 23 µM in experiment [30], 22% in experiment [12], 44% in [14] and 40% in [18].
Consider `CN(C)c1nc(C(F)(F)F)nc2c1ncn2Cc1ccc(S(C)(=O)=O)cc1`, for which the IC50 in experiment [1] was found to be 3 µM; in experiment [31] it was 4.7 µM; in experiment [3] it was 8.8 µM; in experiment [32], 3.7 µM; in experiment [33] it was 4.2 µM; in experiment [7] it was 2.3 µM. The IC50 in experiment [8] turned out to be 6 µM; in experiment [9] it was 9 µM; in experiment [10], 2.3 µM; in experiment [11], 0.5 µM; in experiment [16] it was 9 µM; in experiment [19], 4.3 µM. In addition, the Inhibition in experiment [21] was determined as 16%; in experiment [22] it was 47%; in [34], 40%; in experiment [35], 36%; in experiment [36], 29%; in experiment [37], 36%. In [18], this compound returned an Inhibition of 32%.
